From patent publication US20220064167A1, “IMIDAZO-PYRAZOLE CARBOXAMIDE DERIVATIVES AS ANTICANCER AGENTS AND THE SYNTHESIS THEREOF” (AVIDIN KFT., priority 2018, published 2022)
“Also recorded” adds a separate entry of the source.

Legend:
[1] = test system: HL60 human acute myeloid leukaemia cells in SCID immune-deficient mouse; experiment: leukaemia mouse model (FIG. 7); format: in vivo; conditions: 3 mg/kg intravenously, 10 occasions
Description: The effect on leukaemia was studied on SCID immune-deficient mouse model inoculated intravenously with HL60 human acute myeloid leukaemia cells (ATCC) (1 million cells/animal). Two groups were formed from randomly selected mice, with 9 animals in each group. Group1: control group, it was only administered a carrier (0.1 mL, 0.9% NaCl solution) intravenously; group 2: group treated with compound 60, it was administered 3 mg/kg of compound 60 in PEG100:Solutol:PBS (1:4:15 vol ratio), intravenously.
(§1) The treatments were performed from the third day, on five consecutive occasions per week, for 2 weeks, on a total of 10 occasions. As time went on, every day we determined the number of surviving animals and represented it in percentage per group as compared to the total initial number of animals (FIG. 7). It can be seen that the 3 mg/kg dose of compound 60 administered intravenously was effective, the treatment with compound 60 increased the LD50 (from day 26 to day 42) and the survival rate of the animals.

[2] = test system: U87MG (human glioblastoma); experiment: viability assay (Table 2); format: cell-based; conditions: U-87 MG, read-out: IC50 U87
Description: (§2) For viability assays cells were seeded in 96 well plates (MCF7 and 4T1: 6000, HL60: 120.000 cells/well) and incubated overnight. Compounds were dissolved in dimethyl sulfoxide (DMSO). Cells were treated with an increasing concentration of compounds having the general formula (I.) (156 nM-100 μM). Cell viability was determined after 72h incubation. Resazurin reagent (Sigma-Aldrich) was dissolved in PBS (pH 7.4) at 0.15 mg/ml concentration, sterile filtered (0.22 μm, Merck Millipore) and aliquoted at −20° C. Resazurin reagent (Sigma-Aldrich) was added at a final concentration of 25 μg/ml. After 2 hours incubation at 37° C. 5% CO2 fluorescence (530 nm excitation/580 nm emission) was recorded on a multimode microplate reader (Cytofluor4000, PerSeptive Biosytems). Viability was calculated with relation to untreated control cells and blank wells containing media without cells. IC50 values (50% inhibiting concentration) were calculated by GraphPad Prism® 5 (La Jolla, Calif., USA).
(§3) GBM2 (human glioblastoma), HeLa (human cervical carcinoma), MIA PaCa-2 (human pancreas carcinoma) and U87MG (human glioblastoma) cells were maintained in Dulbecco's Modified Eagle Medium (DMEM) 10% fetal calf serum (FCS, Gibco). A375 (human melanoma), A549 (human lung adenocarcinoma) and HEP3B (human hepatoma) cells were maintained in Dulbecco's Modified Eagle Medium/Nutrient Mixture F-12 (DMEM/F12) 10% FCS.
(§4) Media were supplemented with 2 mM GlutaMAX, and 100 U/mL penicillin, 100 μg/mL streptomycin (Life Technologies, Carlsbad, Calif., USA). Cell cultures were maintained at 37° C. in a humidified incubator in an atmosphere of 5% CO2 (Sanyo, Japan).
(§5) Viability assays were performed as described in Example 102.

[3] = test system: HEP3B (human hepatoma); experiment: viability assay (Table 2); format: cell-based
Description: as §2, §3, §4, §5

[4] = test system: CD11b on HL-60 cells; experiment: flow cytometry of cell surface CD11b (FIG. 3B); format: cell-based, human; conditions: HL-60, 24, 48 and 72 h after treatment
Description: Experiments detecting CD11b expression by Flow cytometric immunofluorescence were done as described in Example 104 without fixation and permeabilization. Native cell surface staining was done by CD11b-FITC (Immunotools cat number 21389113), with 1:20 dilution 24, 48 and 72 h after treatment.

[5] = test system: SKOV-3 cells (ovarian adenocarcinoma); experiment: viability assay (Table 2); format: cell-based; conditions: Homo sapiens, SK-OV-3
Description: as §2
(§6) HT168 (human melanoma), HT199 (human melanoma), HT29 (human colorectal adenocarcinoma), MOLT4 (human leukemia) and U937 (human lymphoma) cells were maintained in Roswell Park Memorial Institute 1640 medium (RPMI-1640) 10% FCS. SKOV-3 cells were maintained in Dulbecco's Modified Eagle Medium/McCoy's medium (DMEM/McCoy) 10% FCS.
as §4, §5

[6] = test system: MOLT4 (human leukemia); experiment: viability assay (Table 2); format: cell-based; conditions: MOLT-4
Description: as §2, §6, §4, §5

[7] = test system: U937 (human lymphoma); experiment: viability assay (Table 2); format: cell-based; conditions: U-937
Description: as §2, §6, §4, §5

[8] = test system: HTT199 human melanoma cells in SCID immune-deficient mouse; experiment: melanoma mouse model (FIG. 8); format: in vivo; conditions: 3 mg/kg intravenously, 10 occasions
Description: The effect on melanoma was studied on SCID immune-deficient mouse model inoculated in the spleen with HTT199 human melanoma cells (ATCC) (1 million cells/animal). Two groups were formed from randomly selected mice, with 10 animals in each group. Group 1: control group, it was only administered a carrier (0.1 mL, 0.9% NaCl solution) intravenously; group 2: group treated with compound 83, it was administered 3 mg/kg of compound 83 in PEG100:Solutol:PBS (1:4:15 vol ratio), intravenously.
as §1, with “8).” for “7).”, “83” for “60”, “33” for “26”, “38)” for “42)”

[9] = test system: HeLa (human cervical carcinoma); experiment: viability assay (Table 2); format: cell-based
Description: as §2, §3, §4, §5

[10] = test system: CD33 expression in HL-60 cells; experiment: quantitative real time PCR of stem cell marker (FIG. 3A); format: cell-based, human; conditions: HL-60, 24 h after treatment, normalized to ACTB
Description: HL-60 cells (10×10^6) were plated in 100 mm tissue culture dishes (Corning Life Sciences) in RPMI 10% FCS. Cells were treated in 10 mL total volume with the compound described in Example 83 24 h after treatment, nucleic acid preparation was done by using the Bioneer RNA purification kit (Bioneer, Viral RNA extraction kit, Daejeon, South Korea) according to an already published protocol (Szebeni et al. 2017a). The quality and quantity of the isolated RNA were measured with NanoDrop1000 Version 3.8.1. (Thermo Fisher Scientific). Reverse transcription from 3 μg of total RNA was performed with the High-Capacity cDNA Archive Kit (Applied Biosystems, Foster City, Calif., USA) in a total volume of 30 μL according to the manufacturer's protocol. Quantitative-real time PCR was carried out using gene specific primers for CD33 (primer sequences: forward 5′ […] 3′, reverse 5′ […] 3′) and CD34, (primer sequences: forward 5′ gcgctttgcttgctgagt 3′, reverse 5′ […] 3′) using Sybr Green detection on a LightCycler Nano instrument (Roche, Hungary). Relative gene expression data was normalized to ACTB (beta actin, primer sequences: forward 5′ attggcaatgagcggttc 3′, reverse 5′ cgtggatgccacaggact 3′) expression.

Structure (SMILES) | survival rate of the animals [1] | median survival time ([1]; control day 26) [days] | IC50 [2] [nM] | IC50 [3] [nM] | matured myeloid cell marker CD11b on the cell surface [4] | IC50 [5] [nM] | IC50 [6] [nM] | IC50 [7] [nM] | survival rate of the animals [8] | median survival time ([8]; control day 33) [days] | IC50 [9] [nM] | expression of haematopoietic stem cell marker CD33 [10]
CC(C)(C)Nc1c(C(C)(C)C)[nH]c2c(C(=O)Nc3ccc(F)cc3)cnn12 [Example 60, 2-(Tert-butyl)-N-(4-fluorophenyl)-3-((tert-butyl-2-yl)amino)-1H-imidazo[1,2-b]pyrazole-7-carboxamide] | increased | 42 | 250 | 250 | – | – | – | – | – | – | – | –
CC(C)(C)Nc1c(C(C)(C)C)[nH]c2c(C(=O)Nc3ccc(N)cc3)cnn12 [Example 83, N-(4-Aminophenyl)-2-(tert-butyl)-3-(tert-butylamino)-1H-imidazo[1,2-b]pyrazole-7-carboxamide] | – | – | – | – | elevation; also recorded: elevated | 150 | 150 | 250 | increased | 38 | 100 | decreased
